In the supplement of paper PMC8149375:

Columns and labels:
Conditions in all cases: treatment: drug + dasatinib (fixed dose, not stated); 5 days
[1] = test system: 769-P; assay: GI50 of drug in presence of dasatinib; higher = less potent
Description: (§1)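 Primary HTS combination arm: 8 RCC cell lines treated with 8 doses (up to 10 uM) of each library drug plus a fixed dose of dasatinib (dose not stated) for 5 days; viability read by CellTiter-Glo and normalised to DMSO. GI50 was fitted with XLfit, AUC is the area under the dose-response curve, and minimum viability is the lowest fraction of DMSO viability across doses.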

[2] = test system: 786-O; assay: as above
Description: as §1

[3] = test system: A498; assay: as above
Description: as §1

[4] = test system: ACHN; assay: as above
Description: as §1

[5] = test system: CAKI-1; assay: as above
Description: as §1

[6] = test system: SN12C; assay: as above
Description: as §1

[7] = test system: TK-10; assay: as above
Description: as §1

[8] = test system: UO-31; assay: as above
Description: as §1

[9] = test system: 769-P; assay: minimum viability across doses, drug + dasatinib, relative to DMSO (fraction); higher = less growth inhibition
Description: as §1

[10] = test system: 786-O; assay: as above
Description: as §1

[11] = test system: A498; assay: as above
Description: as §1

[12] = test system: ACHN; assay: as above
Description: as §1

[13] = test system: CAKI-1; assay: as above
Description: as §1

[14] = test system: SN12C; assay: as above
Description: as §1

[15] = test system: TK-10; assay: as above
Description: as §1

[16] = test system: UO-31; assay: as above
Description: as §1

[17] = test system: 769-P; assay: AUC of dose-response viability curve, drug + dasatinib, normalised to DMSO (arbitrary (AUC of normalised viability)); higher = less growth inhibition
Description: as §1

[18] = test system: 786-O; assay: as above
Description: as §1

[19] = test system: A498; assay: as above
Description: as §1

[20] = test system: ACHN; assay: as above
Description: as §1

[21] = test system: CAKI-1; assay: as above
Description: as §1

[22] = test system: SN12C; assay: as above
Description: as §1

[23] = test system: TK-10; assay: as above
Description: as §1

[24] = test system: UO-31; assay: as above
Description: as §1

Structure (SMILES)	GI50 of drug [2] [nM]	GI50 of drug [4] [nM]	GI50 of drug [1] [nM]	GI50 of drug [3] [nM]	GI50 of drug [5] [nM]	GI50 of drug [6] [nM]	GI50 of drug [7] [nM]	GI50 of drug [8] [nM]	minimum viability across doses [9]	minimum viability across doses [10]	minimum viability across doses [11]	minimum viability across doses [12]	minimum viability across doses [13]	minimum viability across doses [14]	minimum viability across doses [15]	minimum viability across doses [16]	AUC of dose-response viability curve [17]	AUC of dose-response viability curve [18]	AUC of dose-response viability curve [19]	AUC of dose-response viability curve [20]	AUC of dose-response viability curve [21]	AUC of dose-response viability curve [22]	AUC of dose-response viability curve [23]	AUC of dose-response viability curve [24]
Cn1c(=O)n(-c2ccc(C(C)(C)C#N)cc2)c2c3cc(-c4cnc5ccccc5c4)ccc3ncc21 [BEZ235 (NVP-BEZ235)] + Cc1nc(Nc2ncc(C(=O)Nc3c(C)cccc3Cl)s2)cc(N2CCN(CCO)CC2)n1 [dasatinib]	81.3	34.7	59.6	152	73.7	164	306	129	0.0926	0.0643	0.0638	0.0631	0.0361	0.146	0.122	0.00603	1.35	1.44	1.65	1.23	1.35	1.63	1.84	1.66
CCN1CCN(c2ccc(Nc3cc(N(C)C(=O)Nc4c(Cl)c(OC)cc(OC)c4Cl)ncn3)cc2)CC1 [BGJ398 (NVP-BGJ398)] + Cc1nc(Nc2ncc(C(=O)Nc3c(C)cccc3Cl)s2)cc(N2CCN(CCO)CC2)n1 [dasatinib]	990	26.6	2890	9590	26.6	131	1350	1260	0.234	0.249	0.435	0.0494	0.0483	0.0804	0.221	0.00819	2.3	1.97	2.87	1.29	1.15	1.66	2.18	2.64
CC[C@@H]1C(=O)N(C)c2cnc(Nc3ccc(C(=O)N[C@H]4CC[C@H](N5CCN(CC6CC6)CC5)CC4)cc3OC)nc2N1C(C)C [BI6727 (Volasertib)] + Cc1nc(Nc2ncc(C(=O)Nc3c(C)cccc3Cl)s2)cc(N2CCN(CCO)CC2)n1 [dasatinib]	10.5	27.8	43.2	138	55.2	58.6	160	151	0.0202	0.0043	0.0361	0.00653	0.00782	0.0772	0.00827	0.0151	1.16	0.664	1.83	1.13	1.25	1.37	1.61	2.02
COC(=O)c1ccc2c(c1)NC(=O)/C2=C(\Nc1ccc(N(C)C(=O)CN2CCN(C)CC2)cc1)c1ccccc1 [BIBF1120 (Vargatef)] + Cc1nc(Nc2ncc(C(=O)Nc3c(C)cccc3Cl)s2)cc(N2CCN(CCO)CC2)n1 [dasatinib]	> 10000	147	> 10000	> 10000	430	2620	> 10000	1730	0.656	0.694	0.664	0.23	0.125	0.412	0.637	0.128	2.47	2.98	3.35	1.73	1.77	2.3	2.88	2.64
CC(C)c1cnn2c(NCc3ccccc3)cc(NCCCCCCN)nc12.Cl [BS-181 HCl] + Cc1nc(Nc2ncc(C(=O)Nc3c(C)cccc3Cl)s2)cc(N2CCN(CCO)CC2)n1 [dasatinib]	7190	2870	> 10000	> 10000	> 10000	> 10000	> 10000	> 10000	0.672	0.438	0.942	0.344	0.6	0.67	0.657	1.11	2.55	2.72	3.45	1.94	2.34	2.46	2.63	4.39

The next lines start with results.

GI50 of drug [2] [nM]	GI50 of drug [4] [nM]	Structure (SMILES)	GI50 of drug [1] [nM]	GI50 of drug [3] [nM]	GI50 of drug [5] [nM]	GI50 of drug [6] [nM]	GI50 of drug [7] [nM]	GI50 of drug [8] [nM]	minimum viability across doses [9]	minimum viability across doses [10]	minimum viability across doses [11]	minimum viability across doses [12]	minimum viability across doses [13]	minimum viability across doses [14]	minimum viability across doses [15]	minimum viability across doses [16]	AUC of dose-response viability curve [17]	AUC of dose-response viability curve [18]	AUC of dose-response viability curve [19]	AUC of dose-response viability curve [20]	AUC of dose-response viability curve [21]	AUC of dose-response viability curve [22]	AUC of dose-response viability curve [23]	AUC of dose-response viability curve [24]
8.79	4.47	CC[C@@H]1C(=O)N(C)c2cnc(Nc3ccc(C(=O)NC4CCN(C)CC4)cc3OC)nc2N1C1CCCC1 [BI 2536] + Cc1nc(Nc2ncc(C(=O)Nc3c(C)cccc3Cl)s2)cc(N2CCN(CCO)CC2)n1 [dasatinib]	56.8	38.4	7.85	32.1	405	61.4	0.0343	0.0183	0.0692	0.0392	0.0866	0.052	0.0551	0.0114	1.28	0.643	1.51	0.778	0.981	1.24	1.68	1.3
81.7	205	Nc1cc(C(F)(F)F)c(-c2cc(N3CCOCC3)nc(N3CCOCC3)n2)cn1 [BKM120 (NVP-BKM120)] + Cc1nc(Nc2ncc(C(=O)Nc3c(C)cccc3Cl)s2)cc(N2CCN(CCO)CC2)n1 [dasatinib]	478	1250	244	914	505	663	0.0577	0.00305	0.101	0.0632	0.0204	0.0529	0.0741	0.00967	1.83	1.29	2.49	1.48	1.51	1.84	1.84	2.27
